In one assay the target is 5-HT1A (Homo sapiens, UniProt P08908). Put plainly: BRET signaling assay: 5-HT1A-mediated activation of heterotrimeric Gi1 (TRUPATH, HEK293-T). The following applies: Gi BRET EC50.
A further assay addresses 5-HT2A (Homo sapiens, UniProt P28223). Put plainly: cell-based. Also on record: expressed in transfected cells; host or cells: HEK293-T.
The test system of another assay is mice. The assay is described as follows: Open field locomotor activity. It counts as in vivo, mouse. The conditions noted are these: mice, s.c.
A further assay concerns C57BL/6J mice. The assay is described as follows: Head twitch response (HTR). The following applies: s.c., presence or absence of 5-HT1A antagonist WAY-100635. It counts as in vivo, mouse. The procedure:
The head-twitch response evaluation was performed by trained observers who were blinded to both drug and dose. Mice were habituated to the testing room 30 min. The body weight of each mouse was recorded. The HTR was defined as a rapid rotational movement of the head around the longitudinal axis of the animals' body. Mice were administered with vehicle or WAY100,635 (1 mg/kg or 2 mg/kg, sc). Fifteen minutes after the pretreatment injection mice were administered either 4F, 5-MeO-MET (0.1, 0.3, 1 or 3 mg/kg, sc) or 5-MeO-MET (0.3, 1, 3, and 10 mg/kg, sc) and placed in a novel observation cage. An overhead camera (GoPro HERO9 at a 120 Hz, San Mateo, CA, US) recorded their movements. Observers scored HTR from recorded footage for the first 10-min period.

The next assay addresses 5-HT2B (Homo sapiens, UniProt P41595). Put plainly: IP1 functional assay 5-HT2B. It is filed as cell-based. The following applies: Table 3.
For the next assay, the system named is C57BL6J mice. Put plainly: Catalepsy bar test (tetrabenazine / haloperidol induced). It is filed as in vivo, mouse. The conditions noted are these: 10.0 & 20.0 mg/kg s.c., 60 min post inj., vs vehicle. The source says:
Catalepsy, characterized by muscular rigidity and fixity of posture irrespective of external stimuli (Mann et al. 2015, Karuppagounder et al 2012) is a recognized model for Parkinson's disease (PD) in rodents, induced by dopamine (DA) antagonists such as haloperidol, and DA depleting agents like tetrabenazine (TBZ) (Jastrzębska-Więsek et al. 2022, Bhangale et al. 2016). TBZ, a reversible inhibitor of the type-2 vesicular monoamine transporter, primarily affects dopamine neurons by blocking vesicular storage and depleting monoamines (Jastrzębska-Więsek et al. 2022). In contrast, Haloperidol, a nonselective D2 dopamine antagonist, […] (Bhangale et al. 2016). C57BL6J mice are administered TBZ/Haloperidol at t=0 min and 4-F, 5-MeO-PyrT at t=30 min via subcutaneous injection, with Haloperidol (0.5 mg/kg) given intraperitoneal injection. Mice are tested individually at t=60 min, and catalepsy is defined by the absence of movement for 30-60 seconds with a cutoff time set to 60 second. […] The automated Maze Engineers Catalepsy Bar test, featuring sensors to detect forelimb removal from the bar, facilitates automatic recording of forelimb movement duration from the bar to the ground.

“Also recorded” adds a separate entry of the source.

In general, EC50 refers to the concentration that produces a half-maximal response. What is called Emax is the maximal effect, on the per cent scale that the assay sets.

Sequence of 5-HT2A (P28223 whole entry): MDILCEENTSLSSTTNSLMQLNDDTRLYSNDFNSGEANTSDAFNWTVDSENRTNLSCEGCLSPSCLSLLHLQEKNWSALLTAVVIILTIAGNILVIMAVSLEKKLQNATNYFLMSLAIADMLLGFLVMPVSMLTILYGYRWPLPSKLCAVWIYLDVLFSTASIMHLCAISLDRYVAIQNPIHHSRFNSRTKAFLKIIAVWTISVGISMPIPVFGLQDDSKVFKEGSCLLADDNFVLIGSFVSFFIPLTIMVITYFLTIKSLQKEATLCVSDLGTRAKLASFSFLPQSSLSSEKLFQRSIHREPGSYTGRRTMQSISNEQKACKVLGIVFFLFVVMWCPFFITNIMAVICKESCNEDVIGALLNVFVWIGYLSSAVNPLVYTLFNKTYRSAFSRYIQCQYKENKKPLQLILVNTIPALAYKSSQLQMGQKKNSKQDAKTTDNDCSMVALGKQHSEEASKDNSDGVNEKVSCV
Sequence of 5-HT2B (P41595 whole entry, species assumed): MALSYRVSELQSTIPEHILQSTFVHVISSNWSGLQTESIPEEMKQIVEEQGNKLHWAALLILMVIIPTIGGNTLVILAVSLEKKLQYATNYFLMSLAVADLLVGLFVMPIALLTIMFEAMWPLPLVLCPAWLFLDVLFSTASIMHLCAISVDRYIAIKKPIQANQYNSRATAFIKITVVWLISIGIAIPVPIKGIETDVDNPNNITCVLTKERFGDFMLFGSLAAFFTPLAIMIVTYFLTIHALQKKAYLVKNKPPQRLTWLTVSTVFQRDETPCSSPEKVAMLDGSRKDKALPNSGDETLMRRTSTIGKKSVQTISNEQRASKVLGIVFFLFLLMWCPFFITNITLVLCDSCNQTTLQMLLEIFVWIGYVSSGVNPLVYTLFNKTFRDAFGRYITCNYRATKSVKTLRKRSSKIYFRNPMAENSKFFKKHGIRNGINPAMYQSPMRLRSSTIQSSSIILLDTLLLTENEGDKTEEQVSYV
Sequence of 5-HT1A (P08908 whole entry): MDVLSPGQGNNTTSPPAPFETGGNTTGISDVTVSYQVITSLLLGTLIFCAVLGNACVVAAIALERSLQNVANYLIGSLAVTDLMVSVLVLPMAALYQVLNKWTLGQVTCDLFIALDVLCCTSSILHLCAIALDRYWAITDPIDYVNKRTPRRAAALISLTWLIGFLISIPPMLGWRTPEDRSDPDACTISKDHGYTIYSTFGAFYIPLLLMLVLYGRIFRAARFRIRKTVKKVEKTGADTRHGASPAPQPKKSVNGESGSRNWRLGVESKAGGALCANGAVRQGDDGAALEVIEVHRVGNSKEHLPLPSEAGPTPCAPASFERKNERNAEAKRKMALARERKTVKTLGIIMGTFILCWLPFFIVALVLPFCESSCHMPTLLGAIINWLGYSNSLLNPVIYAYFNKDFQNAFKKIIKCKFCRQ

Take `CCN(C)CCc1c[nH]c2ccc(OC)cc12` [Compound 5-MeO-MET]: the EC50 amounted to 25.9 nM at 5-HT1A, 96 nM at 5-HT2A and 130 nM on 5-HT2B (read-out: 5-HT2B (IP1) EC50). In addition, the results for the Emax at 5-HT2A (read-out: 5-HT2A (IP1) Emax (%5-HT)) and on 5-HT2B (read-out: 5-HT2B (IP1) Emax (%5-HT)) were 107% and 62%, respectively. Also, the “locomotor suppression in the open field (OF) test” value with mice is “dose-dependent locomotor suppression”. For the same molecule, in the assay with C57BL/6J mice, the “head-twitch response (HTR), measure of 5-HT2A-mediated hallucinogenic activity” value is “robust HTR in the presence of WAY100; also recorded: robust dose-dependent activity”.

Regarding `COc1cc2c(cc1OC)C1CC(=O)C(CC(C)C)CN1CC2` (centres unmarked) [Tetrabenazine], the induction of catalepsy result in the assay on C57BL6J mice is listed as “significantly induces catalepsy”.

Source of the values: patent publication US20260034119A1, “5-METHOXY-N,N-[…][…], THEIR […], AND METHODS FOR TREATMENT OF NEUROLOGICAL, […], AND SUBSTANCE USE DISORDERS” (priority 2023, published 2026).
